This note sets out measurements from EP4635958A1, “PYRIMIDINE-CONTAINING POLYCYCLIC DERIVATIVE INHIBITOR, AND PREPARATION METHOD THEREFOR AND USE THEREOF” (Shanghai Hansoh Biomedical Co., Ltd., priority 2022, dated 2024).

The target of one data set is T1, KRAS G12D-SOS1 (Homo sapiens, UniProt P01116, G12D).
T1 construct: purchased Cisbio 63ADK000CB17PEG
Briefly: Blocking of KRAS G12D-SOS1 protein binding (Cisbio KRAS-G12D/SOS1 Binding Assay Kit, time-resolved fluorescence). To be noted: KRAS G12D-GTP and SOS1 protein, signal ratio 665nm/620nm; read-out: G12D SOS1 biochemical IC50. An excerpt:
• 1. Experimental objective: […] Experimental reagents and instruments The centrifuge (5810R) was purchased from Eppendorf; the pipette was purchased from Eppendorf or Rainin; and the microplate reader was purchased from BioTek (United States) with a model of SynergyH1 multifunctional microplate reader. KRAS-G12D/SOS1 Binding Assay Kit was purchased from Cisbio, with a catalog number of 63ADK000CB17PEG; GTP was purchased from Sigma, with a catalog number of G8877; 384-well plate was purchased from Perkin Elmer, with a catalog number of 6007299. The Diluent buffer in the kit was used to dilute the compound into 10× compound solution of different concentrations, and 2 uL was added to each well of the 384-well plate. Tag2-KRAS G12D protein and GTP were formulated into a mixed solution of 5×KRAS G12D-GTP protein using Diluent buffer, and Tag1-SOS1 protein was formulated into a 5×SOS1 protein solution using Diluent buffer. Each solution was added to the 384-well plate separately at 4 uL per well, and incubated at room temperature for 15 min. A mixed solution of 2× anti-Tag1-Tb^3+ and anti-Tag2-XL665 formulated using detection buffer was added to the 384-well plate at 10 µL per well, and incubated at 4°C in the dark for 3 h.

Another data set concerns the target KRAS WT (Homo sapiens, UniProt P01116). Briefly: KRAS WT biochemical assay (Table 1, no method of its own). The class given is binding. To be noted: read-out: KRAS WT Biochemical IC50.
The test system of a further data set is GP2D. Briefly: Inhibition of proliferation of KRAS G12D mutant tumor cell line GP2D (CellTiter-Glo). To be noted: Homo sapiens, GP2d, 72 h, read-out: GP2D IC50.
The subject of another data set is AsPC-1. The data set can be described thus: Inhibition of proliferation of KRAS G12D mutant tumor cell line AsPC-1 (CellTiter-Glo). The format is cell-based. The conditions noted are these: Homo sapiens, ASPC1, about 72 h. An outline of the steps: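 KRAS G12D-mutant AsPC-1 cells plated overnight at 37 °C/5% CO2, then exposed to serial compound dilutions (DMSO/medium, vehicle control) for about 72 h. Viability read by CellTiter-Glo luminescence; inhibition rate vs concentration fitted by nonlinear regression for IC50.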

The nature of data set [1]: Pharmacokinetic determination in mice (IV and PO, plasma, LCMS/MS). The class given is in vivo, Balb/c mice. The conditions noted are these: male, Balb/c, mouse, in vivo, iv, 1 mg/kg. A digest of the protocol: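 Male Balb/c mice, fasted overnight (n=3 per route): PO 30 mg/kg in 10% Captisol/50 mM citrate pH 5.0, or IV 1 mg/kg in 5% DMSO/10% Solutol HS15/85% PBS. Orbital blood sampled predose to 24 h; EDTA plasma analysed by LC-MS/MS.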

KRAS WT, sequence (P01116 1-188 isoform P01116-2): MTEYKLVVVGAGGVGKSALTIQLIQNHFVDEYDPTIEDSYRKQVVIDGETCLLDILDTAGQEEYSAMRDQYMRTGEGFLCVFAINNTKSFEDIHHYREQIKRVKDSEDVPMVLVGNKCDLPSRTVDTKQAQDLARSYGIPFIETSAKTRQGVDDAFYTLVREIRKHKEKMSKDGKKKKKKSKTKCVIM
T1 sequence (P01116 1-188 isoform P01116-2 G12D): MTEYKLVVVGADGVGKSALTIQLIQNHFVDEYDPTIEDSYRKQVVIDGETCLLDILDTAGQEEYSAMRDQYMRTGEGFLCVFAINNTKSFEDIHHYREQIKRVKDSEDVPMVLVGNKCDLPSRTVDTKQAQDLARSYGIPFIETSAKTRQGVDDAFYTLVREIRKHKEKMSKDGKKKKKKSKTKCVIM
Procedure for GP2D: Experimental method: When SNU-1, HPAF-II, Panc0403, AsPC-1 or GP2D cells were cultured to the appropriate confluence, and the SNU-1, HPAF-II, Panc0403, AsPC-1 or GP2D cells were collected. The cells were adjusted to the appropriate cell density using complete culture medium, the cell suspension was plated onto a 96-well plate at 90 µL per well, and the plate was placed in the incubator at 37°C and 5% CO2 for adherent culture overnight. Solutions of the compound with different concentrations were formulated using DMSO and culture medium. A vehicle control was set up. […] Then, CellTiter-Glo solution was added, and the obtained mixture was shaken and mixed evenly, incubated in the dark for 10 min, and read with a BioTek Synergy H1 microplate reader. […] Experimental data processing method: The luminescence signal value was used to calculate the inhibition rate. Graphpad Prism software was used to fit the concentration and inhibition rate to a nonlinear regression curve, so as to obtain the IC50 value.

Take `C#Cc1c(F)ccc2cc(O)cc(-c3nc4c5c(nc(OCC6(CN7CCC(=CF)C7)CC6)nc5c3F)N3CC5CCC(N5)C3CO4)c12` (centres unmarked) [Example 15-1]: the half-inhibitory concentration (IC50) at KRAS G12D-SOS1 came to 3 nM; at KRAS WT, 26 nM; in the data set on GP2D it was 0.76 nM.

For the compound `C#Cc1c(F)ccc2cc(O)cc(-c3nc4c5c(nc(OCC6(CN7CCC(=NOC)CC7)CC6)nc5c3F)N3CC5CCC(N5)C3CO4)c12` [Example 21-1, 1-((1-((((5aS,6S,9R)-2-(8-ethynyl-7-fluoro-3-hydroxylnaphthalen-1-yl)-1-fluoro-5a,6,7,8,9,10-hexahydro-5H-4-oxa-3,10a,11,13,14-pentaaza-6,9-methylnaphtho[1,8-ab]hept-12-yl)oxy)methyl)cyclopropyl)methyl)piperidine-4-one-oxo-methyloxime], the half-maximal inhibitory concentration (IC50) at KRAS G12D-SOS1 turned out to be 1.9 nM; on KRAS WT, 60 nM; with AsPC-1 it was 3.1 nM; in the data set on GP2D, 0.75 nM. The compound further gave an AUC in data set [1] of 253 ng·h/mL. In data set [1], the C0 turned out to be 939 ng/mL. Moreover, the clearance in data set [1] turned out to be 14.1 mL/min/kg. This compound gave a half-life in data set [1] of 9.1 h.

On to `C#Cc1c(F)ccc2cc(O)cc(-c3nc4c5c(nc(OCC6(CN7CC8CC(=C(F)F)CC8C7)CC6)nc5c3F)N3CC5CCC(N5)C3CO4)c12` (centres unmarked) [Example 17-1], for which the values for the IC50 on KRAS G12D-SOS1, on KRAS WT and with GP2D were 2.6 nM, 58 nM and 1.2 nM, respectively.

As to `C#Cc1c(F)ccc2cc(O)cc(-c3nc4c5c(nc(OCC6(CN7CCC(=C(F)F)C7)CC6)nc5c3F)N3CC5CCC(N5)C3CO4)c12` (centres unmarked) [Example 14-1], the 50% inhibitory concentration (IC50) at KRAS G12D-SOS1 came to 4.3 nM; at KRAS WT, 153 nM; in the data set with GP2D, 1.5 nM.
